Reference: patent publication US4749702A, “Antidepressive substituted N-[(4-piperidinyl)alkyl] bicyclic condensed oxazol- and thiazolamines” (Janssen Pharmaceutica N. V., priority 1987, dated 1988)

Each compound was assayed on Loss in righting reflex induced by xylazine (assay: Loss of righting reflex test (xylazine antagonism)). Conditions: female Wistar rats 220-270 g; test compound 60 min before observation; xylazine 20 mg/kg i.p. 30 min later; route of test compound not given.
Format: in vivo, Female Wistar strain rats
Procedure: Loss of righting reflex test Female Wistar strain rats weighing 220-270 g were used throughout the test. Sixty minutes before observations were made, the rats were treated with a test compound or with a saline solution. Thirty minutes later, all animals received an intraperitoneal injection of 20 mg/kg body weight of xylazine. […] The degree of which the righting reflex was compromised, was scored 0-3 depending on the animal's response to it being put gently on its back on a flat surface. Score 3: complete loss of righting reflexes; score 2: some righting movements occur, but these fail to result in a 180° turn of the body; score 1: righting movements do result in a 180° turn of the body, but the process takes noticeably more time than it does in normal animals; score 0: righting is effected with a speed similar to that of normal rats.

| SMILES | Loss in righting reflex induced by xylazine ED50-values (dose producing loss of righting reflex scores <3 in 50% of the tested animals) [mg/kg] |
| --- | --- |
| COc1cc2nc(NCC3CCN(CC4COc5ccccc5O4)CC3)sc2cc1OC (stereo not drawn) [Compound 27, N-[[1-[(2,3-dihydro-1,4-benzodioxin-2-yl)methyl]-4-piperidinyl]methyl]-5,6-dimethoxy-2-benzothiazolamine] | 0.16 |
| c1ccc2c(c1)OC[C@H](CN1CCC(CNc3nc4cccnc4s3)CC1)O2 [Compound 13, (-)-(S)-N-[[1[(2,3-dihydro-1,4-benzodioxin-2-yl)methyl]-4-piperidinyl]methyl]thiazolo[5,4-b]pyridin-2-amine] | 0.08 |
| c1ccc2c(c1)OCC(CN1CCC(CNc3nc4cc5c(cc4s3)OCO5)CC1)O2 (stereo not drawn) [Compound 28, N-[[1-[(2,3-dihydro-1,4-benzodioxin-2-yl)methyl]-4-piperidinyl]methyl]-1,3-dioxolo[4,5-f]benzothiazol-6-amine] | 0.31 |
| Cl.Cl.c1ccc2c(c1)OCC(CN1CCC(CNc3nc4ccccc4o3)CC1)O2 (stereo not drawn) [Compound 42, N-[[1-[(2,3-dihydro-1,4-benzodioxin-2-yl)methyl]-4-piperidinyl]methyl]-2-benzoxazolamine dihydrochloride] | 0.31 |
| Cc1ccc2nc(NCC3CCN(CC4COc5ccccc5O4)CC3)sc2c1 (stereo not drawn) [Compound 21, N-[[1-[(2,3-dihydro-1,4-benzodioxin-2-yl)methyl]-4-piperidinyl]methyl]-6-methyl-2-benzothiazolamine] | 0.14 |
| COc1ccc2nc(NCC3CCN(CC4COc5ccccc5O4)CC3)sc2c1 (stereo not drawn) [Compound 68, N-[[1-[(2,3-dihydro-1,4-benzodioxin-2-yl)methyl]-4-piperidinyl]methyl]-6-methoxy-2-benzothiazolamine] | 0.16 |
| Fc1cccc2sc(NCC3CCN(CC4COc5ccccc5O4)CC3)nc12 (stereo not drawn) [Compound 20, N-[[1-[(2,3-dihydro-1,4-benzodioxin-2-yl)methyl]-4-piperidinyl]methyl]-4-fluoro-2-benzothiazolamine] | 0.066 |
| c1ccc2c(c1)OCC(CN1CCC(CNc3nc4cnccc4s3)CC1)O2 (stereo not drawn) [Compound 58, N-[[1-[(2,3-dihydro-1,4-benzodioxin-2-yl)methyl]-4-piperidinyl]methyl]thiazolo[4,5-c]pyridin-2-amine] | 0.080 |
| Fc1ccc2nc(NCC3CCN(CC4COc5ccccc5O4)CC3)sc2c1 (stereo not drawn) [Compound 19, N-[[1-[(2,3-dihydro-1,4-benzodioxin-2-yl)methyl]-4-piperidinyl]methyl]-6-fluoro-2-benzothiazolamine] | 0.31 |
| Cl.Cl.Oc1ccc2nc(NCC3CCN(CC4COc5ccccc5O4)CC3)sc2c1 (stereo not drawn) [Compound 57, 2-[[[1-[(2,3-dihydro-1,4-benzodioxin-2-yl)methyl]-4-piperidinyl]methyl]amino]-6-benzothiazolol dihydrochloride] | 0.31 |
| c1ccc2c(c1)OCC(CN1CCC(CNc3nc4cccnc4s3)CC1)O2 (stereo not drawn) [Compound 8, N-[[1-[(2,3-dihydro-1,4-benzodioxin-2-yl)methyl]-4-piperidinyl]methyl]thiazolo[5,4-b]pyridin-2-amine] | 0.08 |
| c1ccc2c(c1)OCC(CN1CCC(CCNc3nc4ccccc4s3)CC1)O2 (stereo not drawn) [Compound 30, N-[2-[1[(2,3-dihydro-1,4-benzodioxin-2-yl)methyl]-4-piperidinyl]ethyl]-2-benzothiazolamine] | 0.31 |
| COc1cc2nc(NCC3CCN(CC4CCc5ccccc5O4)CC3)sc2cc1OC (stereo not drawn) [Compound 35] | 0.31 |
| COc1cc(OC)c2sc(NCC3CCN(C[C@H]4COc5ccccc5O4)CC3)nc2c1 [Compound 34] | 0.31 |
| COc1cc2nc(NCC3CCN(CC4COc5ccccc5O4)CC3)sc2c(OC)c1OC (stereo not drawn) [Compound 26, N-[[1-[(2,3-dihydro-1,4-benzodioxin-2-yl)methyl]-4-piperidinyl]methyl]-5,6,7-trimethoxy-2-benzothiazolamine (E)-2-butenedioate(2:3)] | 0.08 |
